Broadly, the T/C is the ratio of treated to control. Broadly, the IC50 is the concentration that inhibits the measured activity by half.

Experiment [1] deals with HEL. Nature of the experiment: Antitumor activity against HEL cells xenografted in BALB/C mouse assessed as T/C value at 10 mg/kg, po qd for 14 days consecutively by caliper method relative to control. Type of experiment: functional, Homo sapiens. To be noted: time 14 day.
The subject of experiment [2] is HEL. In words: Induction of apoptosis in HEL cells assessed as apoptotic cells at 0.5 uM incubated for 48 hrs by annexin V-FITC/PI staining based flow cytometry (reference value: 4.23%). Type of experiment: functional, Homo sapiens.
The subject of experiment [3] is HEL. In words: Induction of apoptosis in HEL cells assessed as apoptotic cells at 0.1 uM incubated for 48 hrs by annexin V-FITC/PI staining based flow cytometry (reference value: 3.95%). Type of experiment: functional, Homo sapiens. Background: Flow cytometry measures light scatter and fluorescence of single cells or particles in a stream.
In experiment [4] the test system is HEL. In words: Synergistic antiproliferative effect on HEL cells assessed as combination index at 0.37 uM in presence of vorinostat. Type of experiment: functional, Homo sapiens.
In experiment [5] the test system is HEL. Nature of the experiment: Synergistic antiproliferative effect on HEL cells assessed as fractional inhibitory concentration index at 0.37 uM in presence of vorinostat. Type of experiment: functional, Homo sapiens.
For experiment [6], the system named is HEL. Nature of the experiment: Synergistic antiproliferative effect on HEL cells assessed as fractional inhibitory concentration index at 0.014 uM in presence of vorinostat. Type of experiment: functional, Homo sapiens.
The subject of experiment [7] is HEL. In words: Synergistic antiproliferative effect on HEL cells assessed as fractional inhibitory concentration index at 1.11 uM in presence of vorinostat. Type of experiment: functional, Homo sapiens.
In experiment [8] the test system is HEL. Nature of the experiment: Synergistic antiproliferative effect on HEL cells assessed as combination index at 0.04 uM in presence of vorinostat. Type of experiment: functional, Homo sapiens.
The subject of experiment [9] is HEL. In words: Synergistic antiproliferative effect on HEL cells assessed as fractional inhibitory concentration index at 3.33 uM in presence of vorinostat. Type of experiment: functional, Homo sapiens.
In experiment [10] the test system is HEL. In words: Synergistic antiproliferative effect on HEL cells assessed as combination index at 3.33 uM in presence of vorinostat. Type of experiment: functional, Homo sapiens.
The subject of another experiment is HCT-116. Nature of the experiment: Antiproliferative activity against human HCT-116 cells assessed as cell growth inhibition incubated for 8 hrs by CCK8 assay. Type of experiment: functional, cell-based. Conditions: HCT-116, 8 h. A general note: Tetrazolium assays rely on reduction of a dye to a coloured formazan, in cell work by metabolically active cells.
In the next experiment the test system is MCF7. In words: Antiproliferative activity against human MCF7 cells assessed as cell growth inhibition incubated for 8 hrs by CCK8 assay. Type of experiment: functional, cell-based. Conditions: MCF7, 8 h.
Experiment [11] deals with HEL. In words: Synergistic antiproliferative effect on HEL cells assessed as fractional inhibitory concentration index at 10 uM in presence of vorinostat. Type of experiment: functional, Homo sapiens.
Experiment [12] has as its system HEL. In words: Synergistic antiproliferative effect on HEL cells assessed as fractional inhibitory concentration index at 0.12 uM in presence of vorinostat. Type of experiment: functional, Homo sapiens.
A further experiment deals with K562. Nature of the experiment: Antiproliferative activity against human K562 cells assessed as cell growth inhibition incubated for 8 hrs by CCK8 assay. Conditions: K562, 8 h. Type of experiment: functional, cell-based.
The test system of experiment [13] is HEL. In words: Synergistic antiproliferative effect on HEL cells assessed as fractional inhibitory concentration index at 0.04 uM in presence of vorinostat. Type of experiment: functional, Homo sapiens.
The test system of a further experiment is HepG2. Nature of the experiment: Antiproliferative activity against human HepG2 cells assessed as cell growth inhibition incubated for 8 hrs by CCK8 assay. Type of experiment: functional, cell-based. To be noted: HepG2, 8 h.
Experiment [14] concerns HEL. Nature of the experiment: Synergistic antiproliferative effect on HEL cells assessed as fractional inhibitory concentration index at 0.0046 uM in presence of vorinostat. Type of experiment: functional, Homo sapiens.
Experiment [15] deals with HEL. In words: Synergistic antiproliferative effect on HEL cells assessed as combination index at 1.11 uM in presence of vorinostat. Type of experiment: functional, Homo sapiens.
The next experiment deals with A549. In words: Antiproliferative activity against human A549 cells assessed as cell growth inhibition incubated for 8 hrs by CCK8 assay. Type of experiment: functional, cell-based. Conditions: A549, 8 h.
The test system of experiment [16] is HEL. Nature of the experiment: Synergistic antiproliferative effect on HEL cells assessed as combination index at 10 uM in presence of vorinostat. Type of experiment: functional, Homo sapiens.
Experiment [17] relates to HEL. In words: Antitumor activity against HEL cells xenografted in BALB/C mouse assessed as tumor growth inhibition at 10 mg/kg, po qd for 14 days consecutively by caliper method relative to control. Type of experiment: functional, Homo sapiens. Conditions: 336 h, time 14 day, read-out: TGI.
The subject of experiment [18] is HEL. In words: Synergistic antiproliferative effect on HEL cells assessed as combination index at 0.12 uM in presence of vorinostat. Type of experiment: functional, Homo sapiens.
Experiment [19] has as its system HEL. Nature of the experiment: Synergistic antiproliferative effect on HEL cells assessed as combination index at 0.014 uM in presence of vorinostat. Type of experiment: functional, Homo sapiens.
The test system of experiment [20] is HEL. In words: Synergistic antiproliferative effect on HEL cells assessed as combination index at 0.046 uM in presence of vorinostat. Type of experiment: functional, Homo sapiens.
Experiment [21] concerns HEL. In words: Antiproliferative activity against HEL cells assessed as cell growth inhibition incubated for 8 hrs by CCK8 assay. Type of experiment: functional, cell-based. To be noted: Homo sapiens.

As to `O=C(CCCCCCC(=O)Nc1ccccc1)NO` [VORINOSTAT], the T/C in the experiment with HEL [1] amounted to 88.3%. Also, the values for the Activity in the experiment on HEL [2] and in the experiment with HEL [3] were 46.97% and 15.83%, respectively.
`CN1c2ccc(F)cc2C(=O)N2CCc3c([nH]c4ccc(O)cc34)C21` (configuration not stated): the CI in the experiment on HEL [4] is 0.956; in the experiment on HEL [8], 0.784; with HEL [10], 0.954; in the experiment with HEL [15], 0.954; in the experiment with HEL [16], 1.03; with HEL [18], 0.798. For the same compound, the CI is given as 0.561 with HEL [19] and 0.453 in the experiment with HEL [20]. Also, the “fractional inhibitory concentration index (FICI)” value in the experiment with HEL [5] is reported as 0.868; with HEL [6], 0.802; in the experiment with HEL [7], 0.852; with HEL [9], 0.862; in the experiment with HEL [11], 0.86; in the experiment with HEL [12], 0.853. Moreover, the “fractional inhibitory concentration index (FICI)” value in the experiment on HEL [13] came to 0.836; in the experiment on HEL [14], 0.727. The T/C in the experiment with HEL [1] is recorded as 94.9%. For the same compound, the IC50 is 190 nM in the experiment with HCT-116; 760 nM in the experiment on MCF7; 230 nM in the experiment with K562; 430 nM in the experiment with HepG2; 530 nM in the experiment on A549; 130 nM in the experiment with HEL [21]. The inhibition in vivo at 10 mg/kg in the experiment on HEL [17] came to 7.4%.

Values taken from ChEMBL document CHEMBL5046291, “Evodiamine-Inspired Topoisomerase-Histone Deacetylase Dual Inhibitors: Novel Orally Active Antitumor Agents for Leukemia Therapy” (J Med Chem, 2022).
